Data: PMC6547681 (Nature Communications, 2019)
Where “and” joins values, the source holds several entries; their conditions need not be identical. Identical values can stand only once. Like-named read-outs stand apart in the source and are kept apart here. One block for each molecule: values may come before it. Where no end group is shown, it is not given here.

Tests used:
[1] = tested on: KMS-12-PE cells, Parental; test: CellTiter-Glo cell viability, KMS-12-PE parental cells; format: cell-based; conditions: 3 independent experiments in duplicate
BCL-2 WT [2] = conditions: competition vs BIMBH3 SPR surface, mean ± SD, n=3, previously reported, listed as Ven; cited from earlier work
BCL-2 G101V [3] = conditions: G101V relative to WT; cited from earlier work
BCL-2 F104L [4] = conditions: listed as Ven, cited from earlier work
BCL-2 G101V [5] = conditions: cited from earlier work
[6] = biological target: BCL-2 G101V/E152A double mutant (Homo sapiens, UniProt P10415, E152A/G101V); test: SPR direct binding to immobilised BH3 peptides (kinetic fit), BCL-2 G101V/E152A double mutant
Description: (§1) SPR experiments were performed as previously described. […] The lowest concentrations used in direct binding experiments were 1 nM for BIAcore 4000 and 0.1 nM for BIAcore S200 instruments, concentrations below these were below the sensitivity thresholds for the instruments. […] Direct binding experiments were fitted to a 1:1 binding site kinetic model, fitting on and off rates, in BIAevaluation software. For competition experiments steady-state responses were determined in BIAevaluation software according to the software defaults in affinity evaluation mode averaging responses for 5 sec. […] All affinity measurements were performed in at least two independent experiments using independent protein preparations.
(§2) Raw data (coloured curves) were fitted (black curves) to a 1 site specific kinetic model to determine on and off rates and the equilibrium binding constant KD.
(§3) The BCL-2 mutant proteins were diluted in a 2-fold dilution series, concentration ranges for curves are indicated. All experiments shown were performed on a BIAcore 4000, with the exception of (a) which was performed on a BIAcore S200.
(§4) (1 picture or pasted object on this page, not shown here)

BCL-2 WT [7] = conditions: cited from earlier work
BCL-2 F104L [8] = conditions: cited from earlier work
BCL-2 F104C = BCL-2 F104C (Homo sapiens, UniProt P10415, F104C); test: SPR direct binding to immobilised BH3 peptides (kinetic fit), BCL-2 F104C; conditions: for Kd: BCL-2 F104C
Description: as §1, §2, §3, §4

BCL-2 E152A = BCL-2 E152A (Homo sapiens, UniProt P10415, E152A); test: SPR direct binding to immobilised BH3 peptides (kinetic fit), BCL-2 E152A
Description: as §1, §2, §3, §4

[9] = read-out: BAXBH3 KD (mean), direct binding, kinetic fit, mean ± SD, n ≥ 2, previously reported
[10] = read-out: BAXBH3 KD, single independent experiments, independent experiments 1-3, previously reported
[11] = BCL-2 F104C binding BAXBH3, 1:1 kinetic fit, each independent experiment
[12] = read-out: BAXBH3 KD (mean), direct binding, kinetic fit, mean ± SD, n ≥ 2

Sequence of BCL-2 E152A (P10415 with tags, fused parts or gaps E152A): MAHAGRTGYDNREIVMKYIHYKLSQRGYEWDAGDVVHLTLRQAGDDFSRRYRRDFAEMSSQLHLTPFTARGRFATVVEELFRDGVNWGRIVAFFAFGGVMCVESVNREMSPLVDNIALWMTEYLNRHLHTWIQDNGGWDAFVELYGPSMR
Sequence of BCL-2 F104C (P10415 with tags, fused parts or gaps F104C): as the sequence (P10415 with tags, fused parts or gaps E152A) above, with F47C, A95E counted along it
Sequence of BCL-2 G101V/E152A double mutant (P10415 with tags, fused parts or gaps G101V/E152A): as the sequence (P10415 with tags, fused parts or gaps E152A) above, with G44V counted along it

Molecule: O=C(c1cc(-c2cc3c(cc2C(=O)N2Cc4ccccc4C[C@H]2CN2CCOCC2)OCO3)n2c1CCCC2)N(c1ccccc1)c1ccc(O)cc1 [Servier BCL2i]
Raw data values in Figure 4a (cell viability) ([1]; Servier BCL2i concentration 0.002441 μM, 0.002441 µM): 91.4402 and 90.8859 and 86.2314 and 89.8168 and 85.5276 and 83.3911
Raw data values in Figure 4a (cell viability) ([1]; Servier BCL2i concentration 0.019531 μM, 0.019531 µM): 79.2854 and 83.3303 and 62.6836 and 66.1433 and 63.9237 and 63.1413
Raw data values in Figure 4a (cell viability) ([1]; Servier BCL2i concentration 0.15625 μM, 0.15625 µM): 41.8118 and 47.4883 and 34.039 and 38.7009 and 36.6962 and 37.7057
Raw data values in Figure 4a (cell viability) ([1]; Servier BCL2i concentration 10 μM, 10 µM): 0.8691 and 0.8133 and 1.2479 and 1.255 and 1.1789 and 1.099

Molecule: CC1(C)CCC(CN2CCN(c3ccc(C(=O)NS(=O)(=O)c4ccc(NCC5CCOCC5)c([N+](=O)[O-])c4)c(Oc4cnc5[nH]ccc5c4)c3)CC2)=C(c2ccc(Cl)cc2)C1 [venetoclax]
Ki (BCL-2 WT [2]): 0.018 nM and 0.0181 nM
reduction of affinity of the drug for BCL-2 by the G101V mutation (BCL-2 G101V [3]): ~180 fold
Ki (BCL-2 F104L [4]; competition vs BIMBH3 SPR surface, mean ± SD, n=3, previously reported, read-out: Ven KI (mean)): 0.46 nM and 0.456 nM
Ki (BCL-2 F104L [4]; independent experiments 1-3, previously reported, read-out: Ven KI, single independent experiments): 0.358 nM and 0.584 nM and 0.425 nM

Kd ([6]; read-out: BAXBH3 KD (mean), BCL-2 G101V/E152A, direct binding, kinetic fit, mean ± SD, n ≥ 2): 5.5 nM and 5.51 nM
Kd ([6]; read-out: BAXBH3 KD, single independent experiments, BCL-2 G101V, E152A (DM), independent experiments 1-2): 5.7 nM and 5.31 nM
Kd (BCL-2 F104C; [12]): 4 nM and 4.02 nM
Kd (BCL-2 F104C; read-out: BAXBH3 KD, single independent experiments, independent experiments 1-3): 4.25 nM and 3.96 nM and 3.84 nM
Kd (BCL-2 E152A; [12]): 3.6 nM and 3.55 nM
Kd (BCL-2 E152A; read-out: BAXBH3 KD, single independent experiments, independent experiments 1-2): 4.18 nM and 2.93 nM
Molecule: BAXBH3: biotinylated BAXBH3 peptide ADASTKKLSECLKRIGDELDSNMELQRMIAA immobilised on SPR sensor chip (also: biotinylated, place not given here)
Kd (BCL-2 G101V [5]; [9]): 12 nM and 11.7 nM
Kd (BCL-2 G101V [5]; [10]): 9.91 nM and 12.9 nM and 12.2 nM
Kd (BCL-2 WT [7]; [9]): 1.4 nM and 1.37 nM
Kd (BCL-2 WT [7]; [10]): 1.6 nM and 1.14 nM and 1.36 nM
Kd (BCL-2 F104L [8]; [9]): 6.1 nM and 6.08 nM
Kd (BCL-2 F104L [8]; [10]): 7.24 nM and 5.46 nM and 5.55 nM
ka (BCL-2 F104C; [11]): 1.67e+06 M⁻¹ s⁻¹ and 2e+06 M⁻¹ s⁻¹ and 2.06e+06 M⁻¹ s⁻¹
kd (BCL-2 F104C; [11]): 0.00709 s⁻¹ and 0.00791 s⁻¹ and 0.0079 s⁻¹
